Measured values taken from publication PMC8507746, “The FHP01 DDX3X Helicase Inhibitor Exerts Potent Anti-Tumor Activity In Vivo in Breast Cancer Pre-Clinical Models” (Cancers, 2021).

Assays:
phospho-β-catenin = assay: Western blot of phospho-β-catenin in MDA MB 231 cells; type: cell-based, human; conditions: MDA MB 231, 1 μM, 16 hrs; vehicle = 1.00
Protocol: Cells (1 × 10^5) were seeded in 6-well plates. After 24 h, cells were treated for indicated times with DMSO (vehicle) or FHP01 or XAV939 (Merck). After treatments, cells were washed with cold PBS and total protein extracts obtained by adding 80 µL of “RIPA Lysis buffer” (50 mM Tris-HCl pH 8.0, 150 mM NaCl, 0.5% Sodium deoxycholate, 0.1% SDS, 1% NP-40, 2 mM Orthovanadate, 2mM Sodium fluoride, 1mM Dithiothreitol and 1× protease inhibitors). After mechanicals detachment with cell scrapers, total lysates were collected in tubes, vortexed, and incubated for 15 min on ice. Tumors from mice were collected and disrupted by bead homogenization in Lysing Matrix D tubes using a FastPrep-24 5G homogenizer (MP Biomedicals, Solon, OH, USA) filled with “RIPA Lysis buffer” w:v. Next, samples were centrifuged for 10 min at 16,000× g, and supernatants were collected, representing total cell lysates.
Densitometric analysis of western blots was performed with NIH Image J (National Institutes of Health).

[1] = system: WNT signaling (TCF/LEF transcriptional activity); assay: TCF/LEF luciferase reporter assay (WNT1/WNT3A) in MDA MB 231 cells; type: cell-based, human; conditions: MDA MB 231, WNT1/WNT3A, 1 μM, 16 hrs
Protocol: MDA MB 231 cells were seeded at 3 × 10^4 cells/well density in 12-well plates, in triplicate, and transfected with 250 ng of the M50 Super 8× TOPFlash reporter vector (Addgene Plasmid #12456) and 1 μg of expression vectors inducing the WNT pathway (Wnt1-V5, Addgene plasmid #43807, and Wnt3A-V5, Addgene plasmid #43810). Eight hours after transfection, cells were treated with FHP01, XAV939 (Merck, Kenilworth, NJ, USA) or DMSO for indicated times prior to lysis in Passive Lysis Buffer (Promega, Madison, WI, USA). Luciferase activity in cellular lysates was assessed on a Glomax 20/20 luminometer (Promega) using the Luciferase Assay System (Promega). Results were normalized for GFP expression, upon transfection with GFP coding vector (1 μg). Representative results from 3 independent experiments are shown (n = 3). Error bars represent the Standard Error of the Mean. All samples were read at least in triplicate.

## Oc1nc(-c2ccc(C(F)(F)F)cc2)nc2c1CSCC2 [XAV939, reference compound]
phospho-β-catenin
  Phospho-β-catenin : ERK2: 2.64
[1]
  TCF/LEF-dependent transcription: efficient attenuation
